Laboratory results from paper PMC7999549, “PBP4 Is Likely Involved in Cell Division of the Longitudinally Dividing Bacterium Candidatus Thiosymbion Oneisti” (Antibiotics, 2021).

Legend:
PBP4^TO [1] = molecular target: T1, PBP4^TO (Candidatus Thiosymbion oneisti, UniProt Z9LUN3GEC2); assay: Bocillin-FL labelling, SDS-PAGE fluorescence; assay type: binding; design: His-tagged, expressed in cytoplasm of E. coli SF100 (plasmid pJW06, pET302 vector named); gene 1245 nt, 414 aa; dimers and higher oligomers on native PAGE; conditions: pH 7.5, 50 mM NaCl, 10 mM MgCl2, 28 °C, 30 min; covalent
T1 sequence (Z9LUN3GEC2 31-414 limits assumed): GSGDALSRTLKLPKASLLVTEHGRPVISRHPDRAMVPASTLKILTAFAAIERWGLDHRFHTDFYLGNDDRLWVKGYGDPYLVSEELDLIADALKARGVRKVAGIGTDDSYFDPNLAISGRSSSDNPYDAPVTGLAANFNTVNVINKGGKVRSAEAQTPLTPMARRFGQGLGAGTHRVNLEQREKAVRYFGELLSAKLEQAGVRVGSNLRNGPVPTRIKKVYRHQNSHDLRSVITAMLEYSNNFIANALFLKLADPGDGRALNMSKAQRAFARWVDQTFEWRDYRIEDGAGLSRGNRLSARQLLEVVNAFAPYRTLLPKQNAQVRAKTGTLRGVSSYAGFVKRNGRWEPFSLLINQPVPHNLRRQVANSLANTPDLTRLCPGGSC

PBP4^TO [2] = molecular target: T1, PBP4^TO; assay: Bocillin-FL competition, SDS-PAGE fluorescence; conditions: pH 7.5, 50 mM NaCl, 10 mM MgCl2, 28 °C, 20 min before 15 μg/mL Bocillin-FL (30 min)

CC1=CC(C)=[N+]2C1=Cc1ccc(CCC(=O)Nc3ccc(OCC(=O)N[C@@H]4C(=O)N5[C@@H]4SC(C)(C)[C@@H]5C(=O)O)cc3)n1[B-]2(F)F [Bocillin-FL]
Bocillin-FL labelling, SDS-PAGE fluorescence (PBP4^TO [1]): Purified PBP4^TO protein was detectable after Bocillin-FL labeling

NC(=O)c1cc[n+](CC2=C(C(=O)[O-])N3C(=O)[C@@H](NC(=O)[C@@H](c4ccccc4)S(=O)(=O)O)[C@H]3SC2)cc1 [cefsulodin]
Bocillin-FL competition, SDS-PAGE fluorescence (PBP4^TO [2]; weak binder): cefsulodin, PBP2 inhibitor mecillinam, PBP4 inhibitor cephalexin

CC1(C)S[C@@H]2[C@H](N=CN3CCCCCC3)C(=O)N2[C@H]1C(=O)O [mecillinam]
Bocillin-FL competition, SDS-PAGE fluorescence (PBP4^TO [2]; weak binder): PBP2 inhibitor mecillinam, PBP4 inhibitor cephalexin

C[C@@H](O)[C@H]1C(=O)N2C(C(=O)O)=C(S[C@@H]3CN[C@H](C(=O)N(C)C)C3)[C@H](C)[C@H]12 [meropenem]
Bocillin-FL competition, SDS-PAGE fluorescence (PBP4^TO [2]; possible allosteric second site at high concentration): does present some affinity for PBP4^TO, whereas Bocillin-FL intensity is enhanced with high-concentration treatment

CC1(C)S[C@@H]2[C@H](NC(=O)Cc3ccccc3)C(=O)N2[C@H]1C(=O)O [penicillin G]
Bocillin-FL competition, SDS-PAGE fluorescence (PBP4^TO [2]): penicillin G had a similar affinity for PBP4^TO as for PBP4^EC
